Results published in the Kinase Knowledgebase extract (Sharma et al. 2016).

Columns and labels:
CDK2 (human) [1] = biological target: CDK2 (human) (UniProt P24941); assay: Enzyme Assay
CDK2 (human) [2] = biological target: CDK2 (human) (UniProt P24941); assay: Cell-Based Assay
CDK2 (human) [3] = biological target: CDK2 (human) (UniProt P24941); assay: Cell-Based Assay; conditions: rko

SMILES	IC50 (CDK2 (human) [1])	IC50 (CDK2 (human) [2]; rko)	IC50 (CDK2 (human) [3])	IC50 (CDK2 (human) [2]; mda-mb-468)	IC50 (CDK2 (human) [2]; hdf-3)	IC50 (CDK2 (human) [2]; hdf)	IC50 (CDK2 (human) [2]; mes/sa)
O=C1Nc2ccc3ncsc3c2/C1=C/Nc1ccc2nn[nH]c2c1	30.5 nM			3050 nM			
CN(C)S(=O)(=O)c1ccc(N/C=C2/C(=O)Nc3ccc(-c4cnco4)cc32)cc1				> 5000 nM			
CS(=O)(=O)Cc1ccc(N/C=C2\C(=O)Nc3ccc4ncsc4c32)cc1	30.5 nM	3050 nM			3050 nM		3050 nM
CNS(=O)(=O)Cc1ccc(NN=C2C(=O)Nc3cc(C)c(O)c(C)c32)cc1	75.5 nM	300 nM	300 nM		3050 nM	800 nM	

Second part, the molecule after the results:

IC50 (CDK2 (human) [1])	IC50 (CDK2 (human) [2]; rko)	IC50 (CDK2 (human) [3])	IC50 (CDK2 (human) [2]; mda-mb-468)	IC50 (CDK2 (human) [2]; hdf-3)	IC50 (CDK2 (human) [2]; hdf)	IC50 (CDK2 (human) [2]; mes/sa)	SMILES
5.5 nM	3050 nM	3050 nM					CN(C)S(=O)(=O)c1ccc(N/C=C2\C(=O)Nc3ccc(-c4cnco4)cc32)cc1
5.5 nM	3050 nM			3050 nM			CCC(C)Cc1cccc2c1C(=NNc1ccc(S(N)(=O)=O)cc1)C(=O)N2 (configuration not stated)
5.5 nM	800 nM	800 nM		800 nM	3050 nM	300 nM	NS(=O)(=O)c1ccc(NN=C2C(=O)Nc3ccc(-c4cnco4)cc32)cc1
5.5 nM	3050 nM			3050 nM			CNS(=O)(=O)Cc1ccc(NN=C2C(=O)Nc3ccc4ncccc4c32)cc1
